Counter-ions that a name gives are not always drawn.

Our source for the IC50 values is US10981932B2, “Macrocyclic indole derivatives” (Bayer Aktiengesellschaft, priority 2016, dated 2021).

One data set addresses T1, BCL-XL (Homo sapiens, UniProt Q07817).
T1 construct: BCL-XL (amino acids 1-212, C-terminal fused to a hexahistidine (6×His) tag); purchased BPS Bioscience (San Diego, Calif., USA); host or cells: E. coli
Nature of the data set: Protein-protein interaction assay BCL-XL/Bad BH3 peptide (BCL-XL assay), TR-FRET. It is filed as binding. The note with it: His-BCL-XL / Bad BH3-derived peptide. The method, then:
Protein-Protein Interaction Assay: BCL-XL/Bad BH3 Peptide (BCL-XL Assay)
The dose-dependent inhibition by the compounds described in this invention of the interaction between […] and the BH3 domain of Bad (both human) was determined using a steady state binding competition assay with time-resolved fluorescence energy transfer (TR-FRET) readout. For that purpose BCL-2 (amino acids 1-211, C-terminal fused to a hexahistidine (6×His) tag (SEQ ID NO: 3) and a synthetic Bad BH3-derived peptide of sequence Biotin-PEG2-PEG2-NLWAAQRYGRELRR-NIe-SDEFVDSFKK-amide (SEQ ID NO: 2) served as protein receptor and tracer ligand respectively. The recombinant BCL-2 protein (expressed in E. coli) was purchased from BPS Bioscience (San Diego, Calif., USA). The Bad BH3-derived peptide can be obtained from e.g. Biosyntan (Berlin, Germany).
In the assay 11 different concentrations of each compound (0.1 nM, 0.33 nM, 1.1 nM, 3.8 nM, 13 nM, 44 nM, 0.15 μM, 0.51 μM, 1.7 μM, 5.9 μM and 20 μM) were typically measured as duplicates in the same microtiter plate. For that, 100-fold concentrated DMSO solutions were prepared by serial dilutions (1:3.4) of a 2 mM stock solution in a clear, 384-well microtiter plate (Greiner Bio-One, Frickenhausen, Germany). From there, 50 nl were transferred in a dark test plate (Greiner Bio-One. Frickenhausen, Germany). The assay was initiated by addition of 2 μl of a 2,5-fold concentrated Hs-BCL-XL solution (usually for a 1 nM end concentration in 5 μl reaction volume) in aqueous assay buffer [50 mM Tris/HCl pH 7, 100 mM sodium chloride (NaCl), 50 mM potassium fluoride (KF), 0.005% Tween-20, 2 mM DTT, 0.1% bovine gamma globulin (BGG)] to the compounds in the assay plate. This was followed by a 10-minute incubation step at 22° C. for pre-equilibration of the putative complex between His-BCL-XL and the compounds.
The mixture was incubated in the dark for one hour at 22° C. and then overnight at 4° C. The formation of BCL-XL/Bad complexes was determined by measuring the resonance energy transfer of the anti-His- Eu-cryptate antibody to the streptavidin-XL665 present in the reaction. For that purpose, the fluorescence emission at 620 nm and 665 nm after excitation at 330-350 nm was measured in a TR-FRET measuring instrument, for instance a Rubystar or a Pherastar (both from BMG Lab Technologies, Offenburg, Germany) or a Viewlux (Perkin-Elmer). The ratio of the emission at 665 nm and at 622 nm was used as indicator of the amount of BCL-XL/Bad complexes present.
The resulting data (ratio) were normalized, taking 0% inhibition as the mean value of control measurements (usually 32 data points) where all reagents were included. In this case 50 nl DMSO were used instead of compounds. A 100% inhibition corresponded to the mean value of control measurements (usually 32 data points) where all reagents except BCL-XL were included. IC50 values were determined by regression analysis based on a 4 parameter equation (minimum, maximum, IC50, Hill; Y=Max+(Min−Max)/(1+(X/IC50)^Hill) using the Screener Software (Genedata).
In general terms: Time-resolved FRET reads energy transfer from a long-lived donor to a nearby acceptor.

The test system of a further data set is SUDHL5. Nature of the data set: Induction of cytotoxicity (CellTiter-Glo, 5 h), SUDHL5. Conditions: read-out: Cytotox SUDHL5 [M] (median); SUDHL5 cells, cytotoxicity induction, CellTiter-Glo, 5 h incubation, median. On the technique in general: ATP-based viability assays read luminescence as a measure of living cells.

T1 sequence (Q07817 1-212): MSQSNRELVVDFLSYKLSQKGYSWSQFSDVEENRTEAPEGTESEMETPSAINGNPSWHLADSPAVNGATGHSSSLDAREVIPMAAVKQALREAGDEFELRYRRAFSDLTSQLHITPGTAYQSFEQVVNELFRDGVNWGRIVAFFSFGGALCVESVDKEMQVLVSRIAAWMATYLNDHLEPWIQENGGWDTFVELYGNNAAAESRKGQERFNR

Take `Cn1nc(COc2ccc(N3CCN(S(C)(=O)=O)CC3)cc2)c2c1COCCCCn1c(C(=O)O)c(CCCOc3cccc4ccccc34)c3cccc-2c31` (single isomer, unassigned; enantiomer 2) [Example 1-10, 1-methyl-3-({4-[4-(methylsulfonyl)piperazin-1-yl]phenoxy}methyl)-7-[3-(naphthalen-1-yloxy)propyl]-1,10,11,12,13,15-hexahydropyrazolo[4′,3′:9,10][1,6]oxazacycloundecino[8,7,6-hi]indole-8-carboxylic acid (enantiomer 2)]: the IC50 is more than 20 µM at BCL-XL and 4.33e-07 M with SUDHL5.

For the compound `Cn1nc(COc2ccc(N3CCN(S(=O)(=O)C4CC4)CC3)cc2)c2c1COCCCCn1c(C(=O)O)c(CCCOc3cccc4ccccc34)c3cccc-2c31` (single isomer, unassigned; enantiomer 2) [Example 1-13, 3-({4-[4-(cyclopropylsulfonyl)piperazin-1-yl]phenoxy}methyl)-1-methyl-7-[3-(naphthalen-1-yloxy)propyl]-1,10,11,12,13,15-hexahydropyrazolo[4′,3′:9,10][1,6]oxazacycloundecino[8,7,6-hi]indole-8-carboxylic Acid (Enantiomer 2)], the IC50 is more than 20 µM against BCL-XL and 4.1e-07 M in the data set on SUDHL5.

As to `COCc1nn(C)c2c1-c1cccc3c(CCCOc4cccc5ccccc45)c(C(=O)O)n(c13)CCCN(C)C2` (single isomer, unassigned; enantiomer 2) [Example 1-104, 11-(methoxymethyl)-7,9-dimethyl-1-[3-(1-naphthyloxy)propyl]-4,5,6,7,8,9-hexahydropyrazolo[3′,4′:7,8][1,5]diazecino[9,10,1-hi]indole-2-carboxylic Acid (Enantiomer 2)], the values for the IC50 against BCL-XL and with SUDHL5 were more than 20 µM and 7.21e-06 M, respectively.

As to `Cc1nn(C)c2c1-c1cccc3c(CCCOc4ccc(F)c5ccccc45)c(C(=O)O)n(c13)CCCCOC2` (single isomer, unassigned; enantiomer 2) [Example 023, 7-{3-[(4-fluoronaphthalen-1-yl)oxy]propyl}-1,3-dimethyl-1,10,11,12,13,15-hexahydropyrazolo[4′3′:9,10][1,6]oxazacycloundecino[8,7,6-hi]indole-8-carboxylic acid-N-ethylethanamine Salt (Enantiomer 2)], the IC50 against BCL-XL is more than 20 µM; with SUDHL5, 1.84e-06 M.

For the compound `Cc1c2c(nn1CCN1CCOCC1)CN(C)CCCn1c(C(=O)O)c(CCCOc3cccc4ccccc34)c3cccc-2c31` (single isomer, unassigned; enantiomer 2) [Example 061, 7,11-dimethyl-10-[2-(morpholin-4-yl)ethyl]-1-[3-(naphthalen-1-yloxy)propyl]-4,5,6,7,8,10-hexahydropyrazolo[3′,4′:7,8][1,5]diazecino[9,10,1-hi]indole-2-carboxylic Acid (Enantiomer 2)], the IC50 against BCL-XL was more than 20 µM; in the data set on SUDHL5 it was 1.63e-05 M.

Turning to `Cc1ccc2c(CCCOc3cccc4ccccc34)c(C(=O)O)n3c2c1-c1c(nn(C)c1C)CN(C)CCC3` (single isomer, unassigned; enantiomer 2) [Example 074, 7,10,11,12-tetramethyl-1-[3-(naphthalen-1-yloxy)propyl]-4,5,6,7,8,10-hexahydropyrazolo[3′,4′:7,8][1,5]diazecino[9,10,1-hi]indole-2-carboxylic Acid (Enantiomer 2)], the IC50 on BCL-XL is more than 20 µM; with SUDHL5 it was 1.2e-05 M.
